IC50 data for 8 compounds are collected here from PubChem BioAssay AID651782 (The Scripps Research Institute Molecular Screening Center, 2012).

Active and inactive are the calls of the source.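 How the source made its calls: active means IC50 of 10 µM or lower; inactive means IC50 above 10 µM.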

The experiment addresses Nuclear receptor coactivator 2 (Homo sapiens) (UniProt Q15596). Put plainly: SRC2 (NCOA2) coactivator inhibitors, late-stage follow-up, selectivity assay for SRC3 inhibitor project, cell-based, HEK293, GAL4-SRC2 luciferase, powder samples (AID 651782). The following applies: HEK293 GAL4-SRC2 luciferase reporter, luminescence.

Sequence of Nuclear receptor coactivator 2 (Homo sapiens) (Q15596 whole entry, looked up, the tested form may be a part): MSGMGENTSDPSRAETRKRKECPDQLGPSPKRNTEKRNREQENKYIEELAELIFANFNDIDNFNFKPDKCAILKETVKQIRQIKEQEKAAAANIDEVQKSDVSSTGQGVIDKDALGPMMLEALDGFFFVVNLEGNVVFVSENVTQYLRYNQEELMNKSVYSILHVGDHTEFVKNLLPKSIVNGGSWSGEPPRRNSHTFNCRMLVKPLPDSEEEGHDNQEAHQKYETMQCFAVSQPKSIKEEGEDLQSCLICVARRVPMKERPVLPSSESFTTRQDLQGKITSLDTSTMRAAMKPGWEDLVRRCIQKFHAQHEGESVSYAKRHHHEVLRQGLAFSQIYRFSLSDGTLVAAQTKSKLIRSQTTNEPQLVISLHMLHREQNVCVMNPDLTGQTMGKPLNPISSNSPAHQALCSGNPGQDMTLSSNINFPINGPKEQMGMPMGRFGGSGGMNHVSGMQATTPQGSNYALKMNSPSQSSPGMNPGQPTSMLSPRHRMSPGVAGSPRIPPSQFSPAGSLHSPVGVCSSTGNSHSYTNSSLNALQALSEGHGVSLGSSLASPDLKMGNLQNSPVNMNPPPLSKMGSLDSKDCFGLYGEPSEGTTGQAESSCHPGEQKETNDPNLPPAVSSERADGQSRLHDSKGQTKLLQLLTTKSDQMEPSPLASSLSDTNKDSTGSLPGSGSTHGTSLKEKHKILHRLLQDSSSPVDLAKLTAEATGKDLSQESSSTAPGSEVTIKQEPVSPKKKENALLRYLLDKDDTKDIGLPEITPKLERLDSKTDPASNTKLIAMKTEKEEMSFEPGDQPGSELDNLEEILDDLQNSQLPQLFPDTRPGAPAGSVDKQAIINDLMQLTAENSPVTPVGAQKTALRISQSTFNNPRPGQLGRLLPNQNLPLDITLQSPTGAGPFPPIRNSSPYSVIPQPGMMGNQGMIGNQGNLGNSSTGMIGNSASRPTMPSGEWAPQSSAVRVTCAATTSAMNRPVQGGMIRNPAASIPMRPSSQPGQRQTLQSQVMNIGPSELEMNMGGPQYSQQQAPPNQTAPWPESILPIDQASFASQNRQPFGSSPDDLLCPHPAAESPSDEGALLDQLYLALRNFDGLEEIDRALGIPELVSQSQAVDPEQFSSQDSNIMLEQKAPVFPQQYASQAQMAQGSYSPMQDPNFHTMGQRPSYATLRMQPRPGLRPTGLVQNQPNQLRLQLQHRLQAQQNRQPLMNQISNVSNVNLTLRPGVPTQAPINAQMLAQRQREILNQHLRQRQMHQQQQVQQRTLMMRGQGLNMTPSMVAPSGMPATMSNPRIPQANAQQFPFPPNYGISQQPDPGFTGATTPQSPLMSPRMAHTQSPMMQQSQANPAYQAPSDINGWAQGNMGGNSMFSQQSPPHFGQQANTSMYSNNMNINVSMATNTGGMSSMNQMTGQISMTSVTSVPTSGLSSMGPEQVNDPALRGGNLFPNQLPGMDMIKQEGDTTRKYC

With `CC(C)(C)c1ccc(-c2noc(CCC(=O)Nc3cccnc3)n2)cc1`, the IC50 is > 35.9 µM (inactive). Under `CN1C(=O)C2(C(C#N)=C(N)N(c3cc(Cl)cc(Cl)c3)C3=C2C(=O)CCC3)c2ccccc21` (stereo not drawn) stands > 35.9 µM (inactive). Under `Cc1ccc(OCC(=O)c2cc(C)n(-c3ccccc3)c2C)c([N+](=O)[O-])n1` stands “inactive”. The value for `O=C(Nc1ccccc1Oc1ccccc1)c1cc([N+](=O)[O-])ccc1Cl` was 5.4 µM; that for `OCCN1CCN(C(=S)c2ccc(-c3ccccc3)cc2)CC1` was 4.68 µM. For `CN1C(=O)C2(C(C#N)=C(N)N(c3cc(Cl)cc(Cl)c3)C3=C2C(=O)CC(C)(C)C3)c2ccccc21` (stereo not drawn), the IC50 result was “inactive”. Under `CCCNC(=O)c1nnsc1S(=O)(=O)c1ccc(Cl)cc1` stands “inactive”; under `O=C(COC(=O)c1ccc[nH]c1=O)Nc1ccc(N2CCCCC2)cc1`, > 35.9 µM (inactive).
